Experiments:
[1] = test system: THP-1 clone No. 63 (containing PGL2_Neo30); assay: Luciferase reporter gene assay for compounds which destabilize mRNA, clone No. 63; type: cell-based; details: clone 63
Source text: (§1) One method for identifying a the ability of a compound of the present invention to induce mRNA degradation, comprises i) contacting the compound with a DNA expression system which in the absence of the compound is capable of expressing a protein having a detectable signal, wherein the mRNA which codes for the protein and which is transcribed from the expression system comprises at least one copy of a mRNA instability sequence; ii) measuring the detectable signal in the presence of the test compound and comparing the result obtained with a control. A related method can be used to compare compounds which induce mRNA degradation. This method comprises separately contacting the compounds with a DNA expression system which in the absence of the compounds is capable of expressing a protein having a detectable signal, wherein the mRNA which codes for the protein and which is transcribed from the expression system comprises at least one copy of a mRNA instability sequence, measuring the detectable signal in the presence of each test compound and comparing the signals obtained.
(§2) The THP-1 cell lines, clone No. 63 (containing PGL2_Neo30) and clone No. 53 (containing pGL2-Control) are grown, differentiated and stimulated with IFN-γ and LPS identical to normal THP-1 cells (for details see WO 00/39314). Compound is added 16 hrs after the addition of LPS and cell extracts are then taken 8 hrs later or as indicated. Luciferase activity was inhibited by 1 μM benzoic acid derivative on average by 40%, whereas up to 5 μM of benzoic acid derivative had no effects on the control clone No. 53.

[2] = test system: THP-1 clone No. 53 (containing pGL2-Control); assay: Luciferase reporter gene assay, control clone No. 53; type: cell-based; details: control clone 53
Source text: as §1, §2

What does the source list for `COc1cccc(C)c1C(=O)OC[C@@H]1C=CC(=O)O1`?
Luciferase reporter gene assay (% control) ([1]; 0.5 μM): 85 % control; Luciferase reporter gene assay (% control) ([1]; 1 μM): 79 % control; Luciferase reporter gene assay (% control) ([1]; 5 μM): 29 % control; Luciferase reporter gene assay (% control) ([2]; 0.5 μM): 89 % control; Luciferase reporter gene assay (% control) ([2]; 1 μM): 93 % control; Luciferase reporter gene assay (% control) ([2]; 5 μM): 99 % control

Reference: patent US20050049202A1, “Benzoic acid derivatives and uses thereof” (priority 2000, published 2005)
